The values that follow come from PMC5062083, “Development of a one-pot assay for screening and identification of Mur pathway inhibitors in Mycobacterium tuberculosis” (Scientific Reports, 2016).

In one data set the test system is MurE from E.coli. The arrangement: method as in PMID 25851408. The following applies: range stated jointly for MurE and MurF; cited from earlier work.
The next data set deals with MurF (Mycobacterium tuberculosis, UniProt P9WJL1). In words: inhibition of individual Mur enzyme: MurF. In kind it is biochemical. The procedure:
(§1) Each Mur ligase reaction was performed at 37 °C with an incubation period of 1 h. To measure the activity of MurC, the completed MurB reaction was supplemented with 1 mM L-Alanine, 10 mM MgCl2 and 1 mM ATP. MurD-F ligase activities were performed sequentially, supplementing the prior reaction with 1 mM each of the required substrate (D-Glutamate, meso-Diaminopimelic acid and D -Alanine-D-Alanine, respectively). The control reaction contained all the components except the enzyme that was being tested (e.g. the control reaction for MurC assay contained all the components except MurC). For MurD and MurF reaction, purified MBP at 1 μg concentration was added to the reaction mixture instead of the enzymes. Estimation of net Pi was done as previously described in the MurA assay.
(§2) Tested compounds at various concentrations (5–100 μM) were pre-incubated with enzymes for 15 mins, followed by the addition of remaining constituents of the assay. The final reaction mixture was incubated for 30 mins at 37 °C. To assess specific inhibition of Mur ligases, each of the ligase was pre-incubated with inhibitors separately and then added to the one-pot reaction mixture. The net Pi released was calculated as described earlier. In the ‘no drug’ control reaction, the organic solvent (DMSO) used in dissolving inhibitory compounds was added at 5% concentration to the one-pot assay, while Isoniazid, a standard anti-TB drug with no known effect on Mur activity, was inculded as another control to ascertain the specificity of the tested inhibitors in the study.

The next data set concerns the target MurA (Mycobacterium tuberculosis, UniProt P9WJM1). In words: inhibition of individual Mur enzyme: MurA. In kind it is biochemical. The conditions noted are these: for remaining activity at 100 µM: at 100 μM compound, vs 'no drug' control (5% DMSO), read-out: RA (residual activity), MurA. On the procedure: The reaction was performed in a micro-titer plate at 37 °C for 30 minutes and terminated by the addition of Pi Colorlock™ Assay reagent. Absorbance was measured at 630 nm and the amount of Pi released was calculated from the standard phosphate curve. […] The control reactions contained all the components except MurA. The net Pi was calculated by subtracting total Pi in the control reaction from the total Pi after the completion of the assay. To get a large assay window and to avoid saturation of Pi, optimization of assays were carried out at substrate concentrations so as not to exceed the assay signal beyond 2.0 absorbance units as recommended by the manufacturer of PiColorlock™ Assay kit.
as §2

For another data set, the target named is MurC (Mycobacterium tuberculosis, UniProt P9WJL7). Kind of data set: inhibition of individual Mur enzyme: MurC. In kind it is biochemical. The conditions noted are these: for remaining activity at 100 µM: at 100 μM compound, vs 'no drug' control (5% DMSO), read-out: RA (residual activity), MurC. On the procedure: as §1, §2
Data set [1] deals with Mur pathway (MurA-MurF) enzymes from Mtb. Kind of data set: one-pot assay reconstructing the Mur pathway (Pi release), inhibitor studies. The conditions noted are these: for Percentage inhibition, one-pot assay: at 100 μM concentration of compound; for pIC50: six compound concentrations 5-100 μM, 15 min pre-incubation, 30 min at 37 °C, 5% DMSO control. Type of data set: biochemical, Mycobacterium tuberculosis.

For another data set, the target named is MurB (Mycobacterium tuberculosis, UniProt P9WJL9). Kind of data set: inhibition of individual Mur enzyme: MurB. Type of data set: biochemical. The following applies: for remaining activity at 100 µM: at 100 μM compound, vs 'no drug' control (5% DMSO), read-out: RA (residual activity), MurB. The procedure: To assay MurB activity, the MurA reaction after 30 mins of incubation was supplemented with 10 mM KCl, 0.2 mM NADPH and 60 nM of MurB enzyme in a total volume of 100 μl. The absorbance at 340 nm was monitored over 5 min to calculate the rate of NADPH oxidation. The control reaction contained all the components except MurB.
as §2

The target in another data set is MurE (Mycobacterium tuberculosis, UniProt P9WJL3). Kind of data set: inhibition of individual Mur enzyme: MurE. Type of data set: biochemical.
Another data set deals with MurD (Mycobacterium tuberculosis, UniProt P9WJL5). Kind of data set: inhibition of individual Mur enzyme: MurD. In kind it is biochemical. The conditions noted are these: for remaining activity at 100 µM: at 100 μM compound, vs 'no drug' control (5% DMSO), read-out: RA (residual activity), MurD. On the procedure: as §1, §2
For another data set, the system named is C=C(OP(=O)(O)O)C(=O)O. Kind of data set: purified protein, by the assay type. The following applies: pH 7.0; 37.0 °C.
Data set [2] relates to Mur pathway (MurA-MurF) enzymes from Mtb. Kind of data set: ESI-MS analysis of one-pot assay with inhibitor. In kind it is biochemical, Mycobacterium tuberculosis. The conditions noted are these: Fig. S5.

pIC50: −log10 of the molar value. Read-outs that look alike come from different tables or passages of the source.

Chain of MurF (P9WJL1 whole entry): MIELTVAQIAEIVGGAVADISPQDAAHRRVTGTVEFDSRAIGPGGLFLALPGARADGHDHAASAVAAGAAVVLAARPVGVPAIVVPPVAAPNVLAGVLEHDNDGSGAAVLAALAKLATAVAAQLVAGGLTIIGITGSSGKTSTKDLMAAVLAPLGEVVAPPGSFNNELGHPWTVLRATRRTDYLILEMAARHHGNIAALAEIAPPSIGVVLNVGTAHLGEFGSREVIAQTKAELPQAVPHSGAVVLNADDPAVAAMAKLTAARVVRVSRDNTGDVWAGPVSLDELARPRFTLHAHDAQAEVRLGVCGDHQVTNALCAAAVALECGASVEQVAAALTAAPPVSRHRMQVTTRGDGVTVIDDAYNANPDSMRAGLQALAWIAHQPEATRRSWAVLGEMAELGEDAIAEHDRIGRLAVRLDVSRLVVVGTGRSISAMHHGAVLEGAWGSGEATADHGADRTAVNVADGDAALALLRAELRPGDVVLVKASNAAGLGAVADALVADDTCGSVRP
Chain of MurE (P9WJL3 whole entry): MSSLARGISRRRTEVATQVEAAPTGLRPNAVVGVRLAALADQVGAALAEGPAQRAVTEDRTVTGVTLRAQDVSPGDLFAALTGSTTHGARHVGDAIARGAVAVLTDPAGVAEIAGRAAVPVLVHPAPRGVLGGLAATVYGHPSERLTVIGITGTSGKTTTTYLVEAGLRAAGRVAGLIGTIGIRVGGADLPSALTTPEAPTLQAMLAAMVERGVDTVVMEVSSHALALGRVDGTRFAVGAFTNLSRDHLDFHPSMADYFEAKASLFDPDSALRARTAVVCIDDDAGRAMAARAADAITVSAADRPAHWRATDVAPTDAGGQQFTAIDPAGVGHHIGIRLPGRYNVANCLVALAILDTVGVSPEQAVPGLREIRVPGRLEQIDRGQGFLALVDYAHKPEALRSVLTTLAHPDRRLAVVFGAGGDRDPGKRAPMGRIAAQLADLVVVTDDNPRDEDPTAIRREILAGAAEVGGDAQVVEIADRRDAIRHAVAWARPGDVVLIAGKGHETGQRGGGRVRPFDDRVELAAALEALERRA
Chain of MurD (P9WJL5 whole entry): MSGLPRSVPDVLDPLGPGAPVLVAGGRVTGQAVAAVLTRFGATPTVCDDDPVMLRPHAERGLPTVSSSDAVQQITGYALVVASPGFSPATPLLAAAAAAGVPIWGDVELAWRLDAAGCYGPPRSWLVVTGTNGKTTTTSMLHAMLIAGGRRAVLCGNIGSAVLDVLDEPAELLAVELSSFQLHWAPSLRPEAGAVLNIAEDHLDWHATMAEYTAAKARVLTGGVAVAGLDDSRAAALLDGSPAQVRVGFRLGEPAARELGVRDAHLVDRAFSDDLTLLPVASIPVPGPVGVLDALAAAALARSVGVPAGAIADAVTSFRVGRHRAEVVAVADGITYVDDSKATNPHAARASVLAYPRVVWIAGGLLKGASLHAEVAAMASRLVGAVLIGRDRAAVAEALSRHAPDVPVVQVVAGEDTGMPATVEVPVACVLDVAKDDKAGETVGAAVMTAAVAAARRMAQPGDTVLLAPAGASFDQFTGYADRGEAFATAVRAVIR
Chain of MurC (P9WJL7 whole entry): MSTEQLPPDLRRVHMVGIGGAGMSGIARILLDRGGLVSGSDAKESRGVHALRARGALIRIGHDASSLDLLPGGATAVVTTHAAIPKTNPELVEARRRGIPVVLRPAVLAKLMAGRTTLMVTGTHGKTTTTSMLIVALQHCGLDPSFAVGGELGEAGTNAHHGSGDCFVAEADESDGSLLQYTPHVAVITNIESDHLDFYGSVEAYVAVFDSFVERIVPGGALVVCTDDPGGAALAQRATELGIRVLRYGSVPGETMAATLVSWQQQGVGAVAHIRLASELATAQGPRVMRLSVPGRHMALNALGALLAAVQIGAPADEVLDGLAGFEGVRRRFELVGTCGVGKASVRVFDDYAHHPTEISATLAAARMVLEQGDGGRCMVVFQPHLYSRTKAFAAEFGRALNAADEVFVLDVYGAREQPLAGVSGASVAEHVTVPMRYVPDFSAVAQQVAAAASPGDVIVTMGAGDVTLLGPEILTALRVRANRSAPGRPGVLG
Chain of MurA (P9WJM1 whole entry): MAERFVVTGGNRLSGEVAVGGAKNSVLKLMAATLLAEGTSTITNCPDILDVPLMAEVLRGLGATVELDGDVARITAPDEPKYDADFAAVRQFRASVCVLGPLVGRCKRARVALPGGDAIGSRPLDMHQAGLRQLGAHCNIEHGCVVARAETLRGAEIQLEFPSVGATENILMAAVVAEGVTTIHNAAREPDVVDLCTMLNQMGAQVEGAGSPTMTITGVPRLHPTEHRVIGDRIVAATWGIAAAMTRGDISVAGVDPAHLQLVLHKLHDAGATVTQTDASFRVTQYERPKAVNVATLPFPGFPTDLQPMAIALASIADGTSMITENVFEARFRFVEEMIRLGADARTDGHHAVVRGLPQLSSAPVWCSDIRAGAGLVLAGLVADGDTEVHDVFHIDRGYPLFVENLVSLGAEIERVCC
Chain of MurB (P9WJL9 whole entry): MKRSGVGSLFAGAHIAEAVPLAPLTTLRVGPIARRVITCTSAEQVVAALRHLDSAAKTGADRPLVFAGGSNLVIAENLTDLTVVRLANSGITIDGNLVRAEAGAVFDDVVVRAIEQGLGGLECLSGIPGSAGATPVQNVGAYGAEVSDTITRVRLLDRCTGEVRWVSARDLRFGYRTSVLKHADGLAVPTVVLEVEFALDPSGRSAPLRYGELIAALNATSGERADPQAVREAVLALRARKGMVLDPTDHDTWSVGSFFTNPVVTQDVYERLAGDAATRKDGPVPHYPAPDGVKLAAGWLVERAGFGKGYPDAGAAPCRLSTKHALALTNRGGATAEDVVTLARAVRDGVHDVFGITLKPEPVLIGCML

For `O=C(O)c1cc(-c2ccc(/C=C3/SC(=S)N(c4cccc([N+](=O)[O-])c4)C3=O)o2)ccc1Cl` [Compound 4], the pIC50 (usually the IC50 on a negative log10 scale, so that one unit is a factor of ten) with MurE from E.coli is 4.80 to 4.96; on MurF it was 4.59; in data set [1] it was 5.08; against MurE, 4.77. At MurA, the “inhibition of MurA (in words)” value is reported as “did not inhibit”. The remaining activity at 100 µM at MurA was more than 100%; at MurC it was 73%; on MurB it was more than 100%; on MurD, 85%. For the same compound, the “inhibition of MurC (in words)” value at MurC was “marginal inhibition”. Besides, the “Percentage inhibition, one-pot assay” value in data set [1] is reported as 93%. Moreover, the “inhibition of MurB (in words)” value on MurB is given as “did not inhibit”. The “inhibition of MurD (in words)” value against MurD is on record as “marginal inhibition”.
On to “Mtb MurA (Mycobacterium tuberculosis H37Rv)”, for which, in the data set with C=C(OP(=O)(O)O)C(=O)O, the Km (commonly the concentration of substrate that gives half-maximal velocity) was found to be 527.8 µM and the Vmax – broadly, the rate approached at saturating substrate – amounted to 0.173 µM/min.
Take `O=C(O)c1cc(-c2ccc(/C=C3/SC(=S)N(c4ccc([N+](=O)[O-])cc4)C3=O)o2)ccc1Cl` [Compound 3]: the pIC50 is 4.80 to 4.96 in the data set on MurE from E.coli, 4.34 on MurF, 4.71 in data set [1] and 4.21 against MurE. The “inhibition of MurA (in words)” value against MurA is given as “marginal inhibition”. Also, the remaining activity at 100 µM is 75% at MurA, 66% at MurC, more than 100% on MurB and 88% on MurD. For the same compound, at MurC, the “inhibition of MurC (in words)” value is listed as “marginal inhibition”. The “Percentage inhibition, one-pot assay” value in data set [1] amounted to 97%. Besides, the “inhibition of MurB (in words)” value against MurB is “no inhibition”. Further, the “inhibition of MurD (in words)” value against MurD is reported as “marginal inhibition”.
With `N[C@@H]1CON=C1O` [D-Cycloserine, reference compound], the pIC50 against MurF is 4.17; in [1], 4.13; on MurE (six compound concentrations 5-100 μM, read-out: IC50, MurE), 4.01. In addition, the remaining activity at 100 µM on MurA was more than 100%; at MurC, 64%; at MurB, more than 100%; on MurD, 72%. Moreover, the “final product (UDP-MurNAc pentapeptide) formation in one-pot assay by ESI-MS” value in [2] was “inhibition of final product formation”.
